Results on 86 molecules are retold here after PubChem BioAssay AID2305 (GlaxoSmithKline (GSK), 2010).

pIC50: −log10 of the molar value.

The assay deals with P. falciparum 3D7 growth, pLDH absorbance. Description: blood-stage malaria parasite growth potency – strain 3D7, dose response (AID 2305).
One may read the pIC50 as the IC50 on a negative log10 scale, so that one unit is a factor of ten. A high value points to a low IC50. `Cc1cc(C2CCN(CCCCNC(=O)c3ccc(-c4ccc(C#N)cc4)cc3)CC2)c(C)cc1OCCO`: the pIC50 is 6.09. Consider `N#Cc1ccc(-c2cnc3ccc(NCCc4cccnc4)nn23)cc1`, for which the pIC50 was 6.59. In turn, `COc1ccc(-c2ccc(NC(=O)c3cccc(C#N)c3)cc2)cc1CN(C)C` gave a negative logarithm of the IC50 (pIC50) of 6.14. This pIC50 is 0.45 log units lower than that of the molecule before.

In the case of `O=C(Nc1ccncc1)c1cn(-c2ccccc2)nc1-c1cccs1`, the negative logarithm of the IC50 (pIC50) is 6.01.

`Cc1ccc2nc(C)cc(NC(=O)Nc3ccc(N(C)C)cc3)c2c1`: the pIC50 was 6.27.

Regarding `COc1cc(NC(=O)/C=C/c2ccccc2OC(F)(F)F)cc(OCCN2CCCCC2)c1`, the pIC50 was 6.72. `COc1ccc2c(c1)c(C1CCN(CCCCNC(=O)c3ccc(-c4ccc(C(F)(F)F)cc4)cc3)CC1)cn2C(C)C`: the negative-log IC50 (pIC50) is 6.14. For `CCCn1c(Sc2ccc(C#N)c([N+](=O)[O-])c2)nnc1-c1ccc(OC)cc1`, the pIC50 was 6.07. This pIC50 and that of the molecule before are within 0.2 log units of each other. The molecule `CN1CCC(NCc2ccc(-c3cccc(-c4nc5ccccc5[nH]4)c3)cc2)CC1` showed a pIC50 of 6.89. `CNC(=O)c1ccccc1Nc1nc(Nc2ccc(N3CCN(C)CC3)nc2)ncc1C`: the pIC50 was 5.94. Take `O=C(Nc1ccc(-c2cccc(-c3nc4ccc(C(F)(F)F)cc4[nH]3)c2)cc1)c1ccoc1`: the negative-log IC50 (pIC50) is 6.08. The figure for `CCNC(=O)Nc1cccc(-c2cccc(-c3nc4ccc(C(F)(F)F)cc4[nH]3)c2)c1` is 6.17; for `O=C(NC1CCCCN(Cc2ccccc2O)C1)c1cccc(Cl)c1` (stereo unspecified) it is 5.97; for `COc1cccc(-c2cccc(-c3ccc(NC(=O)c4ccc([N+](=O)[O-])o4)cc3)n2)c1` it is 6.28. The molecule `COc1cccc(OC)c1CN1CCC(N(C)CCCCCCCCN2CCC(OC(=O)Nc3ccccc3-c3ccccc3)CC2)CC1` showed a pIC50 of 6.34. This pIC50 and that of the molecule before are within 0.2 log units of each other. In turn, `Cc1ccc(Nc2ccnc(Nc3ccc(F)c(Cl)c3)n2)cc1O` gave a pIC50 of 6.14. `O=C(Nc1cccc(CN2CCCN(Cc3ccc(F)cc3)CC2)c1)c1cc2ccccc2s1` had a pIC50 of 6.10.

Molecule `COc1ccc2[nH]cc(C3CCN(Cc4ccc(NC(=O)c5ccc(-c6ccccc6)cc5)cc4)CC3)c2c1` gave a pIC50 of 6.11. `c1ccc2c(NCCCCCCNc3c4ccccc4nc4ccccc34)c3ccccc3nc2c1` had a pIC50 of 6.12. This pIC50 and that of the molecule before are within 0.2 log units of each other. Consider `CC(C)(CNC(=O)C1CCN(Cc2ccoc2)CC1)c1nc(-c2ccc(Cl)c(O)c2)c(-c2ccncc2)[nH]1`, for which the negative logarithm of the IC50 (pIC50) was 6.06. Take `CN1CCC(C(=O)Nc2ccc(-c3cccc(-c4nc5ccc(F)cc5[nH]4)c3)cc2)CC1`: the pIC50 is 6.10. The figure for `CCN(CCCN1CCCCC1)c1cc(C)nc(Nc2cc(C)ccc2C)n1` is 6.18; for `COc1c(CCNCCCCNCCc2cc(Cl)c3ccccc3c2OC)cc(Cl)c2ccccc12` it is 6.77. `O=C(NC1CCN(Cc2ccccc2)CC1)c1ccc(-c2nc3cc(Cl)c(Cl)cc3[nH]2)c(F)c1` gave a pIC50 of 6.13. `C=CCN(c1nc(NC)nc(NCc2c(OC)cccc2OC)n1)C1CCCC1` showed a pIC50 of 5.84. The molecule `CCc1cc(N2CCN(c3ccccc3F)CC2)nc(SCc2ccc(C(=O)NC3CC3)o2)n1` had a pIC50 of 6.05. The value for `O=C(Nc1ccc(CCN2CCC(c3nc(COCC(F)(F)F)c(-c4ccccc4)o3)CC2)cc1)c1ccc(F)cc1` was 5.71; that for `O=C(Nc1ccc(Cl)cc1)c1cccc(CN2CCCN(Cc3cccc(O)c3)CC2)c1` was 6.02. Molecule `Cc1ccccc1OCC(=O)Nc1ccc(-c2nc3cc4ccccc4cc3[nH]2)cc1` showed a pIC50 of 6.12. The pIC50 values of the last two molecules are within 0.2 log units of each other. `CCOc1cc(C)ccc1N1CCN(CCN2CCC(NC(=O)c3ccc(-c4ccc(C#N)cc4)cc3)CC2)CC1` showed a pIC50 of 5.84. Molecule `O=C(c1c(-c2[nH]c3ccccc3c2C(=O)C(F)(F)F)[nH]c2ccccc12)C(F)(F)F` had a negative logarithm of the IC50 (pIC50) of 6.12. In turn, `COc1ccc(OC(C)CNC(=O)c2cc([N+](=O)[O-])ccc2-c2ccc(OC)cc2)cc1` (stereo unspecified) gave a pIC50 of 5.94. On to `CC(C)C[C@H](NC(=O)c1cc2ccccc2s1)C(=O)N[C@H]1CCN(Cc2ccc(OC[C@@H]3CCCN3C)c3ccccc23)C1`, for which the pIC50 is 5.94. As to `CC(CNCc1cn(Cc2cc(Br)cc(Br)c2)c2ccccc12)CNc1cc(=O)c2ccccc2[nH]1` (stereo unspecified), the pIC50 is 6.34. With `CCOC(=O)C1=C(C)NC2=C(C(=O)CC(C)(C)C2)C1c1ccc(Cl)cc1` (stereo unspecified), the pIC50 was 6.04. Molecule `C=CC[C@H](NC(=O)c1ccc(NS(=O)(=O)c2ccc3nc(N)[nH]c(=O)c3c2)cc1)C(=O)OCCCC` showed a negative logarithm of the IC50 (pIC50) of 6.82. With `CCOc1cc(C(=O)N[C@@H](Cc2ccccc2)[C@H](O)CNCc2cccc(OC)c2)cc(N2CCCCS2(=O)=O)c1`, the negative logarithm of the IC50 (pIC50) was 6.14.

Take `Cc1cc(N2CCCN(C)CC2)nc(Nc2ccc(Br)cc2)n1`: the pIC50 is 6.14.

The molecule `Cc1cc(N[C@@H](Cc2ccccc2)C(=O)Nc2ccccc2)nc(NCC2CCCCC2)n1` had a pIC50 of 6.12.

In turn, `Cc1cc(-c2cc(-c3ccc(OCCN(C)C)cc3)[nH]c2-c2ccc3c(c2)CCC3=NO)ccn1` gave a pIC50 of 6.06. Turning to `CC1CCc2c(C(=O)N3CCc4ccccc4C3)csc2C1` (stereo unspecified), the pIC50 was 6.11. As to `CN(C)Cc1ccc2cc(NC(=O)c3ccc(-c4ccc(Cl)cc4)cc3)ccc2n1`, the pIC50 is 6.07.

`CCN(CC)CCNc1nc(C=Cc2ccc(Cl)cc2)nc2cc3ccccc3cc12` showed a negative-log IC50 (pIC50) of 6.82. On to `CN1CCCC(CN2CCN(Cc3cccc(-c4ccc(-c5nc6ccc(C(F)(F)F)cc6[nH]5)cc4)c3)CC2)C1` (stereo unspecified), for which the negative-log IC50 (pIC50) is 6.82. As for `CN1CCN(CCCN(C(=O)Nc2cc(C(F)(F)F)cc(C(F)(F)F)c2)c2ccccc2Cc2ccccc2)CC1`, the pIC50 was 5.95. In turn, `COCCCNC(=O)[C@H]1CNCCN1C(=O)c1ccccc1` gave a pIC50 of 6.10. In turn, `CN1CCCC(CN2CCN(Cc3ccc(-c4ccc(-c5nc6ccc(F)cc6[nH]5)cc4)cc3)CC2)C1` (stereo unspecified) showed a negative-log IC50 (pIC50) of 6.92. Turning to `O=C(NC(c1ccccc1)c1ccc2cccnc2c1O)c1ccccc1` (stereo unspecified), the pIC50 is 6.37. This pIC50 lies 0.55 log units lower than the previous one. Take `COc1cc(Nc2nccc(N3CCC(NC(=O)Nc4cc(C)ccc4C)C3)n2)cc(OC)c1OC` (stereo unspecified): the pIC50 is 5.95. The value for `COc1ccccc1-c1nc2nc(N)nc(N)c2nc1-c1ccccc1OC` was 5.90. As for `O=c1c2ccccc2[nH]c2cc(Cl)ccc12`, the pIC50 was 6.06. `O=C(CN(c1cccc(C(F)(F)F)c1)S(=O)(=O)c1ccc(Cl)cc1)NCCC(c1ccccc1)c1ccccc1` had a negative logarithm of the IC50 (pIC50) of 6.13. As for `NC(=O)CN1CC=C(c2c[nH]c3ccc(Br)cc23)CC1`, the pIC50 is 5.96. The figure for `COc1ccc2nc3cc(Cl)ccc3c(NCCNCC(O)CO)c2n1` (stereo unspecified) is 6.82; for `O=C(CN1CCCCC1)Nc1ccc(Nc2nccc(NCC(O)c3ccccc3)n2)cc1` (stereo unspecified) it is 6.24; for `COc1cc(C(=O)NC2CCN(Cc3ccccc3)CC2)ccc1-c1nc2cc(Cl)c(Cl)cc2[nH]1` it is 6.28. With `COC(=O)c1ccc(CC(C)NCC(O)c2ccccc2Cl)cc1` (stereo unspecified), the pIC50 is 6.00.

On to `CC(C)(C)c1ccc2nc(-c3ccc(C(=O)NCCCc4ccccc4)cc3)[nH]c2c1`, for which the pIC50 was 6.10. In turn, `CCCCCC(C)C(C)c1cc(O)c2c3c(c(=O)oc2c1)CN(Cc1ccccc1)CC3` (stereo unspecified) showed a pIC50 of 6.22.

`O=C(Nc1ccccc1)Nc1cccc(-c2cccc(-c3nc4ccc(F)cc4[nH]3)c2)c1`: the negative-log IC50 (pIC50) is 6.74.

Regarding `Cc1cc(Cl)c(Cl)cc1NC(=O)Nc1cccc(C(F)(F)F)c1`, the pIC50 is 6.06. Regarding `COc1cccc(-c2ccc(C(=O)NC3CCN(Cc4ccc(C(C)(C)C)cc4)CC3)s2)c1`, the pIC50 is 5.80. `CN1CCN(CC(=O)Nc2ccc(-c3ccc(-c4nc5ccc(C(F)(F)F)cc5[nH]4)s3)cc2)CC1` showed a pIC50 of 6.24.

On to `O=C(Nc1ccc(N2CCN(C(=O)C=Cc3ccccc3)CC2)c(Cl)c1)c1ccc([N+](=O)[O-])o1`, for which the pIC50 was 6.07. This pIC50 and that of the molecule before are within 0.2 log units of each other. The value for `Cc1cccc2[nH]c(-c3ccc(-c4ccc(CN5CCN(c6ccncc6)CC5)cc4)cc3)nc12` was 6.80; that for `CN1CCC(N2CCN(Cc3cccc(-c4ccc(-c5nc6ccccc6[nH]5)cc4)c3)CC2)CC1` was 6.80; that for `Clc1cc(Cl)c2c(c1)C(NCCCNc1nc3ccccc3[nH]1)CCO2` (stereo unspecified) was 6.48. In turn, `c1ccc2[nH]c(-c3ccc(-c4ccc(CN5CCN(c6ccncc6)CC5)cc4)cc3)nc2c1` showed a pIC50 of 6.80. For the molecule `CCCCCCNCCOc1ccc(-c2nc(-c3ccccc3)c(-c3ccccc3)[nH]2)cc1`, the pIC50 is 6.17. Consider `Cc1cccc2[nH]c(-c3ccc(-c4cccc(NC(=O)Nc5ccccc5)c4)cc3)nc12`, for which the negative-log IC50 (pIC50) was 6.14. With `Cc1cc(N[C@@H](Cc2ccccc2)C(=O)NCc2cccs2)nc(NCCc2ccccc2)n1`, the pIC50 is 6.10.

As for `CC(C(=O)N1CCCC1)N1CCN(S(=O)(=O)c2ccc(C(C)(C)C)cc2)CC1` (stereo unspecified), the negative logarithm of the IC50 (pIC50) is 6.19. The pIC50 values of the last two molecules are within 0.2 log units of each other. The value for `S=C(NCCCCCN1CCC(c2c[nH]c3ccccc23)CC1)Nc1ccc(Cl)c(Cl)c1` was 6.15. In turn, `CCn1c(Sc2ccc(C#N)c([N+](=O)[O-])c2)nnc1-c1ccc(OC)cc1` had a negative logarithm of the IC50 (pIC50) of 6.09.

`O=C(/C=C/c1ccc(Cl)c(Cl)c1)NCCCCCCN1CCN(C(=O)Nc2cc(F)cc(F)c2)CC1` showed a negative logarithm of the IC50 (pIC50) of 5.97.

In turn, `Cc1ccc(-n2nc(-c3ccccc3)c3cc(C(=O)NCCN)sc32)cc1` showed a pIC50 of 5.86.

Molecule `CCC(C)NC(=O)CN1CN(c2ccccc2)C2(CCN(C(=O)c3ccc4ccccc4c3)CC2)C1=O` (stereo unspecified) showed a negative logarithm of the IC50 (pIC50) of 6.20. `O=C1Nc2cccc3c2C1(CCCCN1CCC(c2c[nH]c4cc(C(F)(F)F)ccc24)CC1)CCC3` (stereo unspecified) gave a pIC50 of 6.14. The molecule `Nc1nc(N)c2c(ccc3[nH]c(-c4ccccc4Cl)nc32)n1` gave a pIC50 of 6.64. Turning to `O=C(N[C@@H](Cc1ccccc1)C(=O)NC1CCCCC1)c1ccc(O)c(-c2ccc(Cl)c(Cl)c2)c1`, the pIC50 is 6.64. The figure for `O=C(NCc1ccc(Cl)c(Cl)c1)[C@H]1CNCCN1C(=O)c1ccccc1` is 6.02; for `CC(C)(C)CNCC(C)(C)c1nc(-c2ccc(Cl)c(O)c2)c(-c2ccncc2)[nH]1` it is 6.22. As to `CC(C)c1ccc(NC(=O)c2cccc(CN3CCCN(CC4CCCCC4)CC3)c2)cc1`, the pIC50 is 6.15. This pIC50 and that of the molecule before are within 0.2 log units of each other. In turn, `O=C(/C=C/c1ccc(Cl)c(Cl)c1)NC1CCC(CN2CCC(c3nc4ncccc4[nH]3)CC2)CC1` (stereo unspecified) gave a pIC50 of 5.91. The value for `COc1cc2nc(N3CC(C)N(C(=O)Cc4ccc(-c5ccccc5)cc4)C(C)C3)nc(N)c2cc1OC` (stereo unspecified) was 6.10; that for `CC(C)CCN(Cc1cncn1Cc1cccc(C(F)(F)F)c1)C(=O)c1cncc(-c2ccccc2)c1` was 6.11.
